Source: US20200146289A1, “Herbicidal pyrimidine compounds” (BASF SE, priority 2017, published 2020)

What was measured:
[1] = tested on: APESV; test: greenhouse pre-emergence herbicidal test; format: in vivo, Apera spica-venti; conditions: for control of APESV: 125 g/ha; for herbicidal activity: APESV, scale 0 to 100
Source text: (§1) The seeds of the test plants were sown separately for each species. For the pre-emergence treatment, the active ingredients, which had been suspended or emulsified in water, were applied directly after sowing by means of finely distributing nozzles. The containers were irrigated gently to promote germination and growth and subsequently covered with transparent plastic hoods until the plants had rooted. This cover caused uniform germination of the test plants, unless this had been impaired by the active ingredients. Depending on the species, the plants were kept at 10-25° C. or 20-35° C., respectively. The test period extended over 2 to 4 weeks. During this time, the plants were tended, and their response to the individual treatments was evaluated. Evaluation was carried out using a scale from 0 to 100. 100 means no emergence of the plants, or complete destruction of at least the aerial moieties, and 0 means no damage, or normal course of growth. A good herbicidal activity is given at values of at least 70 and a very good herbicidal activity is given at values of at least 85. The plants used in the greenhouse experiments were of the following species: [table]

[2] = tested on: ECHCG; test: greenhouse post-emergence herbicidal test; format: in vivo, Echinocloa crus-galli; conditions: scale 0 to 100
Source text: (§2) The seeds of the test plants were sown separately for each species. For the post-emergence treatment, the test plants were first grown to a height of 3 to 15 cm, depending on the plant habit, and only then treated with the active ingredients which had been suspended or emulsified in water. For this purpose, the test plants were either sown directly and grown in the same containers, or they were first grown separately as seedlings and transplanted into the test containers a few days prior to treatment. Depending on the species, the plants were kept at 10-25° C. or 20-35° C., respectively. The test period extended over 2 to 4 weeks. During this time, the plants were tended, and their response to the individual treatments was evaluated. Evaluation was carried out using a scale from 0 to 100. 100 means no emergence of the plants, or complete destruction of at least the aerial moieties, and 0 means no damage, or normal course of growth. A good herbicidal activity is given at values of at least 70 and a very good herbicidal activity is given at values of at least 85. The plants used in the greenhouse experiments were of the following species: [table]

[3] = tested on: AVEFA; test: greenhouse post-emergence herbicidal test; format: in vivo, Avena fatua; conditions: for control of AVEFA: 500 g/ha; for herbicidal activity: AVEFA, scale 0 to 100
Source text: as §2

[4] = tested on: ALOMY; test: greenhouse pre-emergence herbicidal test; format: in vivo, Alopecurus myosuroides; conditions: 125 g/ha
Source text: as §1

[5] = tested on: ECHCG; test: greenhouse pre-emergence herbicidal test; format: in vivo, Echinocloa crus-galli; conditions: scale 0 to 100
Source text: as §1

[6] = tested on: ALOMY; test: greenhouse post-emergence herbicidal test; format: in vivo, Alopecurus myosuroides; conditions: for herbicidal activity: ALOMY, scale 0 to 100; for control of ALOMY: 500 g/ha
Source text: as §2

[7] = tested on: AMARE; test: greenhouse post-emergence herbicidal test; format: in vivo, Amaranthus retroflexus; conditions: for control of AMARE: 500 g/ha; for herbicidal activity: 1000 g/ha, AMARE, scale 0 to 100
Source text: as §2

[8] = tested on: POAAN; test: greenhouse post-emergence herbicidal test; format: in vivo, Poa annua; conditions: 2000 g/ha, scale 0 to 100
Source text: as §2

[9] = tested on: AGSST; test: greenhouse pre-emergence herbicidal test; format: in vivo, Agrostis stolonifera; conditions: 2000 g/ha, scale 0 to 100
Source text: as §1

[10] = tested on: POAAN; test: greenhouse pre-emergence herbicidal test; format: in vivo, Poa annua; conditions: 2000 g/ha, scale 0 to 100
Source text: as §1

[11] = tested on: AGSST; test: greenhouse post-emergence herbicidal test; format: in vivo, Agrostis stolonifera; conditions: 2000 g/ha, scale 0 to 100
Source text: as §2

[12] = tested on: SETVI; test: greenhouse post-emergence herbicidal test; format: in vivo, Setaria viridis; conditions: 1000 g/ha, scale 0 to 100
Source text: as §2

[13] = tested on: MATIN; test: greenhouse post-emergence herbicidal test; format: in vivo, Matricaria inodora; conditions: 2000 g/ha, scale 0 to 100
Source text: as §2

With `COC(=O)c1nc(C2CC2)ncc1-c1cc(C(F)(F)F)ccc1Cl` [Ex.3, Methyl 5-[2-chloro-5-(trifluoromethyl)phenyl]-2-cyclopropyl-pyrimidine-4-carboxylate] the “control of APESV” value [1] was 90%, the herbicidal activity ([1]; 1000 g/ha) was “very good (a very good herbicidal activity is given at values of at least 85)” and the herbicidal activity ([2]; 1000 g/ha) was “very good (a very good herbicidal activity is given at values of at least 85)”. The “control of AVEFA” value [3] was 85%, the herbicidal activity ([3]; 1000 g/ha) was “very good (a very good herbicidal activity is given at values of at least 85)” and the “control of ALOMY” value [4] was 85%. The herbicidal activity ([5]; 1000 g/ha) was “very good (a very good herbicidal activity is given at values of at least 85)” and the herbicidal activity ([6]; 1000 g/ha) was “very good (a very good herbicidal activity is given at values of at least 85)”.
With `O=C(O)c1nc(C2CC2)ncc1-c1cc(C(F)(F)F)ccc1Cl` [Ex.4, 5-[2-chloro-5-(trifluoromethyl)phenyl]-2-cyclopropyl-pyrimidine-4-carboxylic acid] the “control of APESV” value [1] was 100%, the herbicidal activity ([1]; 1000 g/ha) was “very good (a very good herbicidal activity is given at values of at least 85)” and the herbicidal activity ([2]; 1000 g/ha) was “very good (a very good herbicidal activity is given at values of at least 85)”. The “control of AVEFA” value [3] was 90%, the “control of AMARE” value [7] was 80% and the herbicidal activity [7] was “very good (a very good herbicidal activity is given at values of at least 85)”. The “control of ALOMY” value [4] was 90%, the herbicidal activity ([5]; 1000 g/ha) was “very good (a very good herbicidal activity is given at values of at least 85)” and the “control of ALOMY” value [6] was 90%. For the same compound, the herbicidal activity ([6]; 1000 g/ha) was “very good (a very good herbicidal activity is given at values of at least 85)”.
`COC(=O)c1nc(C2CC2)ncc1-c1cc(C(F)(F)F)ccc1Br` [Ex.5] was tested, and the herbicidal activity [8] was “very good (a very good herbicidal activity is given at values of at least 85)”, the herbicidal activity [9] was “good (A good herbicidal activity is given at values of at least 70)” and the herbicidal activity [10] was “very good (a very good herbicidal activity is given at values of at least 85)”. The herbicidal activity [11] was “very good (a very good herbicidal activity is given at values of at least 85)”.
In the case of `O=C(O)c1nc(C2CC2)ncc1-c1cc(C(F)(F)F)ccc1Br` [Ex.6], the herbicidal activity ([1]; 1000 g/ha) is reported as “very good (a very good herbicidal activity is given at values of at least 85)”, the herbicidal activity ([2]; 1000 g/ha) is reported as “very good (a very good herbicidal activity is given at values of at least 85)” and the herbicidal activity ([5]; 1000 g/ha) is reported as “very good (a very good herbicidal activity is given at values of at least 85)”. For the same compound, the herbicidal activity ([6]; 1000 g/ha) was “very good (a very good herbicidal activity is given at values of at least 85)” and the herbicidal activity [12] was “very good (a very good herbicidal activity is given at values of at least 85)”.
For `COC(=O)c1nc(C2CC2)ncc1-c1cc(C(F)F)ccc1Cl` [Ex.7], the herbicidal activity ([1]; 1000 g/ha) was “very good (a very good herbicidal activity is given at values of at least 85)”, the herbicidal activity ([2]; 1000 g/ha) was “very good (a very good herbicidal activity is given at values of at least 85)” and the “control of AVEFA” value [3] was 90%. The herbicidal activity ([3]; 1000 g/ha) was “very good (a very good herbicidal activity is given at values of at least 85)”, the herbicidal activity ([5]; 1000 g/ha) was “very good (a very good herbicidal activity is given at values of at least 85)” and the herbicidal activity ([6]; 1000 g/ha) was “very good (a very good herbicidal activity is given at values of at least 85)”.
With `O=C(O)c1nc(C2CC2)ncc1-c1cc(C(F)F)ccc1Cl` [Ex.8] the herbicidal activity ([1]; 1000 g/ha) was “very good (a very good herbicidal activity is given at values of at least 85)”, the “control of AVEFA” value [3] was 90% and the “control of AMARE” value [7] was 100%. The herbicidal activity [7] was “very good (a very good herbicidal activity is given at values of at least 85)”, the herbicidal activity ([5]; 1000 g/ha) was “very good (a very good herbicidal activity is given at values of at least 85)” and the “control of ALOMY” value [6] was 90%. The herbicidal activity ([6]; 1000 g/ha) was “very good (a very good herbicidal activity is given at values of at least 85)” and the herbicidal activity [12] was “very good (a very good herbicidal activity is given at values of at least 85)”.
`O=C(O)c1nc(C2CC2)ncc1-c1cc(C(F)(F)F)cc(Br)c1Br` [Ex.9] was tested, and the herbicidal activity [8] was “very good (a very good herbicidal activity is given at values of at least 85)”, the herbicidal activity ([1]; 2000 g/ha) was “good (A good herbicidal activity is given at values of at least 70)” and the herbicidal activity [10] was “very good (a very good herbicidal activity is given at values of at least 85)”. For the same compound, the herbicidal activity [13] was “very good (a very good herbicidal activity is given at values of at least 85)”.
`COC(=O)c1nc(C2CC2)ncc1-c1cc(OC(F)(F)F)ccc1F` [Ex.11] was tested, and the herbicidal activity ([1]; 2000 g/ha) was “very good (a very good herbicidal activity is given at values of at least 85)”, the herbicidal activity ([3]; 2000 g/ha) was “very good (a very good herbicidal activity is given at values of at least 85)” and the herbicidal activity ([5]; 2000 g/ha) was “very good (a very good herbicidal activity is given at values of at least 85)”. For the same compound, the herbicidal activity ([6]; 2000 g/ha) was “very good (a very good herbicidal activity is given at values of at least 85)”.
For `O=C(O)c1nc(C2CC2)ncc1-c1cc(OC(F)(F)F)ccc1F` [Ex.12], the herbicidal activity ([1]; 2000 g/ha) was “very good (a very good herbicidal activity is given at values of at least 85)”, the herbicidal activity ([3]; 2000 g/ha) was “good (A good herbicidal activity is given at values of at least 70)” and the herbicidal activity ([6]; 2000 g/ha) was “very good (a very good herbicidal activity is given at values of at least 85)”.
With `COC(=O)c1nc(C2CC2)ncc1-c1cc(C(F)(F)F)ccc1C` [Ex.13] the herbicidal activity ([1]; 2000 g/ha) was “very good (a very good herbicidal activity is given at values of at least 85)”, the herbicidal activity ([5]; 2000 g/ha) was “very good (a very good herbicidal activity is given at values of at least 85)” and the herbicidal activity ([6]; 2000 g/ha) was “very good (a very good herbicidal activity is given at values of at least 85)”.
With `Cc1ccc(C(F)(F)F)cc1-c1cnc(C2CC2)nc1C(=O)O` [Ex.14] the herbicidal activity ([1]; 2000 g/ha) was “very good (a very good herbicidal activity is given at values of at least 85)”, the herbicidal activity ([2]; 2000 g/ha) was “very good (a very good herbicidal activity is given at values of at least 85)” and the herbicidal activity ([3]; 2000 g/ha) was “very good (a very good herbicidal activity is given at values of at least 85)”. The herbicidal activity ([5]; 2000 g/ha) was “very good (a very good herbicidal activity is given at values of at least 85)” and the herbicidal activity ([6]; 2000 g/ha) was “very good (a very good herbicidal activity is given at values of at least 85)”.
